We go through two compounds from patent US7300764B2, “Method for identifying agonists and antagonists of the GPR45-like/GPR63 receptor” (Sanofi-Aventis Deutschland GmbH, priority 2002, dated 2007).

Experiment [1] addresses T1, GPR45 like/GPR63 receptor (Homo sapiens, UniProt Q9BZJ6). Put plainly: FLIPR assay, stimulation of intracellular Ca2+ release in transfected CHO cells. Type of experiment: cell-based. Details: The PCR fragment with a length of 1,260 base pairs which was formed by the PCR described above was incorporated; expressed in transfected cells; host or cells: CHO-K1 cells, transient transfection with Lipofectamine. The following applies: final concentration of 1 μM; CHO cells expressing GPR45 like/GPR63 receptor and G protein α subunit delta 6qi4mgr. The protocol:
CHO-K1 cells were cultivated in basal Iscove's medium with further additions. Iscove's medium is commercially available from, for example, Biochrom, Berlin. The composition was described for the first time in N. N. Iscove and F. Melchers, Journal of Experimental Medicine 147, 923-933 (1978). 10% fetal bovine serum, 10 000 U/ml-10 000 μg/ml penicillin-streptomycin, gentamycin, and 2 mM L-glutamine were used as further additions to Iscove's medium. The cells were incubated at 37° C. with a 5% CO2 atmosphere.
About 2×10^5 CHO-K1 cells were seeded in 35 mm dishes for the transient transfection. After further incubation for about 24 hours and with the cells at about 50-80% confluence, the cells were transiently transfected with 1 μg of the plasmid DNA construct with the assistance of Lipofectamine (Gibco).
About 16 to 18 hours after the transfection, the CHO cells were put in an amount of about 80,000 cells per well in 96-well plates and incubated further for about 18-24 hours. […]
After the last washing step, 100 μl were left on the cells in each well. […] A 60 μM solution was kept ready on a 96-well microtiter plate. […]
The fluorescence was measured by a Fluorometric Imaging Plate Reader (FLIPR®, Molecular Devices, Sunnyvale, Calif.) for 1 min in intervals lasting 1 sec and for a further 2 min in 3-second intervals. […]

The target of experiment [2] is T1, GPR45 like/GPR63 receptor. The experiment can be described thus: Cell growth assay in transfected CHO cells. The experiment is classed as cell-based. Details: The PCR fragment with a length of 1,260 base pairs which was formed by the PCR described above was incorporated; expressed in transfected cells; host or cells: CHO cells, transient transfection with Lipofectamine. The settings on record: 1 μM S1P, 48 hours, Iscove's medium with 10% dialyzed fetal calf serum, average of 2 independent tests. The protocol: CHO cells were put in an amount of 8×10^4 cells into 35 mm plates. After 32 hours, the cells were transfected with 1 μg of the plasmid construct using Lipofectamine (Gibco). After a further 13 hours (time 0), the cells were washed with PBS and incubated in Iscove's medium which contained 10% dialyzed fetal calf serum for 48 hours (time 48), specifically in the presence or absence of 1 μM S1P (sphingosine 1-phosphate).
The number of cells at time 0 and time 48 was determined by counting. This was done by first treating the cells with trypsin and then suspending them in 1 ml of Iscove's. An amount of 100 μl of these cells was diluted in 10 ml of buffer and counted in a cell counter, e.g. in the Casy Cellcounter TT (Cell Counter und Analysesystem, Schärfe, Reutlingen).
An amount of 8×10^4 CHO cells was seeded onto 35 mm plates. The cells were transfected after 32 hours with 1 μg of DNA of the vector construction. After 13 hours, the cells were washed once with PBS and incubated in Iscove's medium containing 10% dialyzed fetal calf serum in the presence or absence of 1 μM S1P for a further 48 hours.

T1 sequence (Q9BZJ6 whole entry, the tested form may be a part): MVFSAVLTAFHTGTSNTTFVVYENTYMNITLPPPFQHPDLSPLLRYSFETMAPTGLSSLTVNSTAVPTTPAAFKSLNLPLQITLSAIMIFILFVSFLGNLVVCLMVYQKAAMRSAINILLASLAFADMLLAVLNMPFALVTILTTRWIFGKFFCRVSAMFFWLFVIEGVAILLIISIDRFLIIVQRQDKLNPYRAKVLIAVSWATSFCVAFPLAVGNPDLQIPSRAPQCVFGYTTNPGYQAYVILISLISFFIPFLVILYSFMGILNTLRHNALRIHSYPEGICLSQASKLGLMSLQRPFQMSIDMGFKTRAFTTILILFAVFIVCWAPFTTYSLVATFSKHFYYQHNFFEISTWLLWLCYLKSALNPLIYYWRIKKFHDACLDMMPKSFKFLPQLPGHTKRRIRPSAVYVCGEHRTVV

Regarding `CCCCCCCCCCCCCCC[C@@H](O)[C@@H](N)COP(=O)(O)O` [DHS1P, dihydrosphingosine 1-phosphate], in experiment [1], the “Ca^2+ influx” value was “led to a measurable Ca^2+ influx”.

With `CCCCCCCCCCCCC/C=C/[C@@H](O)[C@@H](N)COP(=O)(O)O` [S1P, sphingosine 1-phosphate], the “more cells (cell number vs absence of S1P)” value in experiment [2] is “about 20%”. Moreover, the “Ca^2+ influx” value in experiment [1] is on record as “led to a measurable Ca^2+ influx”.
